Results as given in ChEMBL document CHEMBL3044800, “Synthesis, characterization and anticancer activity of 3-aza-analogues of DP-7” (Med Chem Res, 2012).
Activity calls are given as the source filed them. No cut-off for these calls is given here.

tested on: L5178Y; test: Antiproliferative activity against Mus musculus (mouse) L5178Y cells transfected with mdr1 (unknown origin) after 72 hr by MTT assay; assay type: functional, cell-based

Compound | Activity
CC1=C(C(=O)c2ccccc2)C(c2cccc(Oc3ccccc3)c2)NC(=S)N1 (stereo unspecified) | Active
COc1ccc(OC)c(C2NC(=O)NC(C)=C2C(=O)c2ccccc2)c1 (stereo unspecified) | Active
CC1=C(C(=O)c2ccccc2)C(c2cccc3ccccc23)NC(=O)N1 (stereo unspecified) | Active
CC1=C(C(=O)c2ccccc2)C(c2c[nH]c3ccccc23)NC(=O)N1 (stereo unspecified) | Active

target: Voltage-gated L-type calcium channel (Rattus norvegicus, UniProt P22002+Q02485+P27732); test: Inhibition of L-type calcium channel in Rattus norvegicus (rat) heart artery myocytes; assay type: tissue-based

IC50 [µM] | Compound
1.12 | CC1=C(C(=O)c2ccccc2)C(c2cccc(Oc3ccccc3)c2)C(C(=O)c2ccccc2)=C(C)N1

target: T1, ATP-dependent translocase ABCB1 (Homo sapiens, UniProt P08183); test: Inhibition of MDR1 (unknown origin)-mediated rhodamine 123 uptake expressed in mouse L5178Y cells assessed as fluorescence activity ratio at 21.99 uM by flow cytometry relative to untreated control; assay type: cell-based
T1 sequence (P08183 whole entry): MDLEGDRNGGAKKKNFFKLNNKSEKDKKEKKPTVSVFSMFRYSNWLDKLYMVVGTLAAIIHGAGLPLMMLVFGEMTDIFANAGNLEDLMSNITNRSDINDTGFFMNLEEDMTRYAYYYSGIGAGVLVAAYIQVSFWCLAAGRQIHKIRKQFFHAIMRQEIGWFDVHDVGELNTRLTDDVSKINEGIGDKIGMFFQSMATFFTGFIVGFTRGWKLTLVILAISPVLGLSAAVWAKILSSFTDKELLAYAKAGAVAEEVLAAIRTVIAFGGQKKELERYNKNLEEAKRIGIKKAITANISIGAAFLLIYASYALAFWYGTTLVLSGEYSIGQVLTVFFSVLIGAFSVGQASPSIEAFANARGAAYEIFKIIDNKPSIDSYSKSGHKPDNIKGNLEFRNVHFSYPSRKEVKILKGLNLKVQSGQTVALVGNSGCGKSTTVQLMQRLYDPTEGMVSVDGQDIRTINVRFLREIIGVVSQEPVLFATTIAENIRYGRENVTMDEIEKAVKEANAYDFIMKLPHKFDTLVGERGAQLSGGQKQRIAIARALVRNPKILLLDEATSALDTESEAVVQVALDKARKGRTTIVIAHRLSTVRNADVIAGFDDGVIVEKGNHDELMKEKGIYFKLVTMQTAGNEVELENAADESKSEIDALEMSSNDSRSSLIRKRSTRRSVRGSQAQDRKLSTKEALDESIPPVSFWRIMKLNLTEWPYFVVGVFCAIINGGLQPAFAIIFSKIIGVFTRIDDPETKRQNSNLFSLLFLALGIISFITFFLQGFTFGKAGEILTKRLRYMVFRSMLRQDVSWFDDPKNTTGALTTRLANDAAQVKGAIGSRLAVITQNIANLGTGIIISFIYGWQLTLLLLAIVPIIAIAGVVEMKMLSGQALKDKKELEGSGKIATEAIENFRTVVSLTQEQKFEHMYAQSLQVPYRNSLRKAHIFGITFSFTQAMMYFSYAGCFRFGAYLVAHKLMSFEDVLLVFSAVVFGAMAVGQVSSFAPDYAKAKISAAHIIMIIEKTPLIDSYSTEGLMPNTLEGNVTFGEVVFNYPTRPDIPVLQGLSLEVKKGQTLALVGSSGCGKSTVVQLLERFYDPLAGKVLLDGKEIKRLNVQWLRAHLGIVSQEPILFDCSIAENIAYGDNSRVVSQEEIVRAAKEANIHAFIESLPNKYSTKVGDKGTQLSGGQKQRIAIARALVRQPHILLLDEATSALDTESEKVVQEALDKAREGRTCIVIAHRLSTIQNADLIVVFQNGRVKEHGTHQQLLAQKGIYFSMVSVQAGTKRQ

RLU | Compound
4.26 | COc1ccc(CCN(C)CCCC(C#N)(c2ccc(OC)c(OC)c2)C(C)C)cc1OC (stereo unspecified) [VERAPAMIL]

target: T1, ATP-dependent translocase ABCB1; test: Inhibition of MDR1 (unknown origin)-mediated rhodamine 123 uptake expressed in mouse L5178Y cells assessed as fluorescence activity ratio at 4 uM by flow cytometry relative to untreated control; assay type: cell-based

Compound | RLU
CC1=C(C(=O)c2ccccc2)C(c2cccc(O)c2)NC(=O)N1 (stereo unspecified) | 0.97
CC1=C(C(=O)c2ccccc2)C(c2cccc(Cl)c2)NC(=O)N1 (stereo unspecified) | 0.89
CC1=C(C(=O)c2ccccc2)C(c2ccccc2O)NC(=S)N1 (stereo unspecified) | 1.03
COc1ccc(C2NC(S)=NC(C)=C2C(=O)c2ccccc2)cc1OC (stereo unspecified) | 1.28
CC1=C(C(=O)c2ccccc2)C(c2ccccc2)NC(=O)N1 (stereo unspecified) | 1.09
CC1=C(C(=O)c2ccccc2)C(c2cccc(Cl)c2)NC(=S)N1 (stereo unspecified) | 1.21
CC1=C(C(=O)c2ccccc2)C(c2cccc(Oc3ccccc3)c2)NC(=S)N1 (stereo unspecified) | 3.68
COc1ccc(OC)c(C2NC(=O)NC(C)=C2C(=O)c2ccccc2)c1 (stereo unspecified) | 36.85
CC1=C(C(=O)c2ccccc2)C(c2cccc3ccccc23)NC(=O)N1 (stereo unspecified) | 29.87
CC1=C(C(=O)c2ccccc2)C(c2ccccc2[N+](=O)[O-])NC(=O)N1 (stereo unspecified) | 0.94
CC1=C(C(=O)c2ccccc2)C(c2cccc(Br)c2)NC(=S)N1 (stereo unspecified) | 1.11
CC1=C(C(=O)c2ccccc2)C(c2ccccc2Cl)NC(=O)N1 (stereo unspecified) | 0.98

The remaining lines, values ahead:

RLU | Compound
0.96 | CC1=C(C(=O)c2ccccc2)C(c2ccc(Cl)cc2)NC(=O)N1 (stereo unspecified)
1.39 | CC1=C(C(=O)c2ccccc2)C(c2cccc([N+](=O)[O-])c2)NC(=O)N1 (stereo unspecified)
1.23 | CC1=C(C(=O)c2ccccc2)C(c2cccc(Oc3ccccc3)c2)NC(=O)N1 (stereo unspecified)
0.96 | COc1cc(C2NC(=O)NC(C)=C2C(=O)c2ccccc2)cc(OC)c1OC (stereo unspecified)
0.93 | COc1cc(C2NC(=S)NC(C)=C2C(=O)c2ccccc2)cc(OC)c1OC (stereo unspecified)
0.99 | CC1=C(C(=O)c2ccccc2)C(/C=C/c2ccccc2)NC(=O)N1 (stereo unspecified)
1.15 | CC1=C(C(=O)c2ccccc2)C(c2cccc(Br)c2)NC(=O)N1 (stereo unspecified)
1.28 | CC1=C(C(=O)c2ccccc2)C(/C=C/c2ccccc2)NC(=S)N1 (stereo unspecified)
4.57 | CC1=C(C(=O)c2ccccc2)C(c2c3ccccc3cc3ccccc23)NC(=O)N1 (stereo unspecified)
1.15 | COc1cc(OC)cc(C2NC(=O)NC(C)=C2C(=O)c2ccccc2)c1 (stereo unspecified)
1.26 | CC1=C(C(=O)c2ccccc2)C(c2ccco2)NC(=O)N1 (stereo unspecified)
2.11 | CC1=C(C(=O)c2ccccc2)C(c2ccc(C#N)cc2)NC(=O)N1 (stereo unspecified)
0.97 | CC1=C(C(=O)c2ccccc2)C(c2ccccc2)NC(=S)N1 (stereo unspecified)
1.03 | CC1=C(C(=O)c2ccccc2)C(c2ccc(Cl)cc2)NC(=S)N1 (stereo unspecified)
1.17 | CC1=C(C(=O)c2ccccc2)C(c2ccccc2Cl)NC(=S)N1 (stereo unspecified)
78.56 | CC1=C(C(=O)c2ccccc2)C(c2c[nH]c3ccccc23)NC(=O)N1 (stereo unspecified)
0.88 | CC1=C(C(=O)c2ccccc2)C(c2ccccc2[N+](=O)[O-])NC(=S)N1 (stereo unspecified)
0.82 | CC1=C(C(=O)c2ccccc2)C(c2cc(Br)c(O)c(Br)c2)NC(=O)N1 (stereo unspecified)
